Measurements published in ChEMBL document CHEMBL1201862, “PubChem BioAssay data set” (2004).
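Five concentrations, 48 hours, 96-well plates. GI50 marks 50% less growth.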 Active and inactive are the calls of the source. Cut-off read from the data, not from the text of the source: active = GI50 up to about 1.1 µM and inactive = higher.

What was measured:
Assay in all cases: NCI anticancer screen, dose series, 48 h
[1] = system: HOP-18
[2] = system: SNB-75
[3] = system: SK-MEL-28
[4] = system: RXF 393
[5] = system: TK-10
[6] = system: ACHN
[7] = system: OVCAR-3
[8] = system: SK-MEL-2
[9] = system: HCC 2998
[10] = system: KM12
[11] = system: EKVX
[12] = system: SK-OV-3
[13] = system: COLO 205
[14] = system: MOLT-4
[15] = system: LXFL 529
[16] = system: DU-145
[17] = system: BT-549
[18] = system: UO-31
[19] = system: MCF7
[20] = system: 786-0
[21] = system: SN12C
[22] = system: NCI-H226
[23] = system: SNB-78
[24] = system: UACC-257
[25] = system: DMS-273
[26] = system: M19-MEL
[27] = system: SF-295
[28] = system: T47D
[29] = system: SF-539
[30] = system: MDA-MB-231
[31] = system: Hs-578T
[32] = system: MDA-N
[33] = system: KM-20L2
[34] = system: HL-60
[35] = system: NCI/ADR-RES
[36] = system: SNB-19
[37] = system: SR
[38] = system: SW-620
[39] = system: NCI-H460
[40] = system: HT-29
[41] = system: PC-3
[42] = system: A498
[43] = system: LOX IMVI
[44] = system: MDA-MB-435
[45] = system: DLD-1

`COc1cc(C2c3cc4c(cc3[C@@H](NCCCN3CCCC3=O)C3COC(=O)[C@H]23)OCO4)cc(OC)c1O` (stereo partly specified) was tested, and the GI50 [1] was 28.7 µM (inactive), the GI50 [2] was 1.67 µM (inactive) and the GI50 [3] was 15.4 µM (inactive). The GI50 [4] was 6.84 µM (inactive), the GI50 [5] was 30.3 µM (inactive) and the GI50 [6] was 3.41 µM (inactive). For the same molecule, the GI50 [7] was 45.9 µM (inactive), the GI50 [8] was 36.2 µM (inactive) and the GI50 [9] was 19.1 µM (inactive). For the same molecule, the GI50 [10] was 21 µM (inactive), the GI50 [11] was > 100 µM (inactive) and the GI50 [12] was 4.29 µM (inactive). The GI50 [13] was 7.76 µM (inactive).
In the case of `COc1cc2c(cc1OC)[C@@H](Nc1ccc(C#N)cc1)C1COC(=O)[C@@H]1C2c1cc(OC)c(O)c(OC)c1` (stereo partly specified), the GI50 [1] is reported as 0.805 µM (active), the GI50 [14] is reported as < 0.00975 µM (active) and the GI50 [2] is reported as 0.328 µM (active). The GI50 [15] was 22.4 µM (inactive), the GI50 [16] was 0.149 µM (active) and the GI50 [17] was 1.41 µM (inactive). For the same molecule, the GI50 [18] was 1.75 µM (inactive), the GI50 [4] was 2.09 µM (inactive) and the GI50 [6] was 0.0279 µM (active). For the same molecule, the GI50 [19] was 0.181 µM (active), the GI50 [10] was 1.59 µM (inactive) and the GI50 [20] was 0.196 µM (active). The GI50 [21] was 0.192 µM (active), the GI50 [22] was 0.01 µM (active) and the GI50 [23] was 5.79 µM (inactive). For the same molecule, the GI50 [24] was 28.3 µM (inactive), the GI50 [25] was 0.0403 µM (active) and the GI50 [26] was 2.39 µM (inactive). The GI50 [27] was 0.108 µM (active), the GI50 [28] was 0.167 µM (active) and the GI50 [29] was 0.158 µM (active). For the same molecule, the GI50 [30] was 2.36 µM (inactive), the GI50 [31] was 1.55 µM (inactive) and the GI50 [32] was 3.18 µM (inactive). For the same molecule, the GI50 [33] was 3.12 µM (inactive), the GI50 [34] was < 0.00975 µM (active) and the GI50 [35] was 40.2 µM (inactive). For the same molecule, the GI50 [36] was 0.344 µM (active), the GI50 [37] was < 0.00975 µM (active) and the GI50 [38] was 0.948 µM (active). The GI50 [39] was < 0.00975 µM (active), the GI50 [40] was 1.87 µM (inactive) and the GI50 [41] was > 100 µM (inactive). For the same molecule, the GI50 [42] was 0.042 µM (active), the GI50 [13] was 2.13 µM (inactive) and the GI50 [43] was 0.214 µM (active). For the same molecule, the GI50 [44] was 6.73 µM (inactive) and the GI50 [45] was 2.37 µM (inactive).
